Laboratory results taken from publication PMC4914250, “Cancer therapeutic approach based on conformational stabilization of mutant p53 protein by small peptides” (Oncotarget, 2016).

Tests used:
SK3 = test: Crystal violet viability assay, SK3; format: cell-based, human; parameters: key: score 0- no effect-white; score 6- as or more effective than positive control- black; conditions: score 0-6 compared to positive control, 48 h
From the text: We also performed a similar analysis on ES2 ovarian cancer cells, which express endogenous mp53^S241F, compared to ES2 cells in which p53 was stably knocked out using CRISPR/Cas9 (ES2 p53KO Figure S1F), to control for specificity for mutp53 (Figure 2D). In ES2 cells, too, some of the peptides caused a significant reduction in cell numbers, more prominent in the mutp53 expressing cells than in their p53KO counterparts. […] Overall, we performed this analysis on several different mutp53-expressing human cancer cell lines, and the results are summarized in Table S3. Based on this comprehensive picture, we reduced the number of most promising candidate lead peptides to 30. These peptides were then synthesized with an 8 arginine C-terminal tail for enhanced delivery across cell membranes (pCAPs 130-160); for clarity, peptides are referred to by their original number, with an R for poly arginine (see Table S3).
(§1) Cells were cultured in 96 wells plates with 2500-4000 cells/well. Serial dilutions of different peptides were added and the plates incubated for additional 48 h at 37°C. Then medium was removed and cell viability was determined by staining the cells with crystal violet (0.05%) in methanol/PBS (1:5, v/v), for 10 min, followed by 3 washes with PBS. 10% acetic acid was added to each well for 10 min. OD was determined at 595 nm.

[1] = tested on: p53 target genes in ES2 cells; test: Induction of p53 target genes by qRT-PCR, ES2; format: cell-based, human; conditions: for PCR ES2: score 0-6 compared to positive control, induction of p53 target genes by qRT-PCR; for expression of the p53 target genes, ES2: peptide 5ug/ml, 18 hours, ES2 versus ES2 p53KO
Method: Since p53 works primarily as a transcription factor, we tested the ability of lead peptides to induce p53 target gene activation. To that end we used H1299-tsp53^V135A cells, which express temperature sensitive (ts) p53 and allow examination of WT and mutant p53 states in the same cellular background. In the representative experiment shown in Figure 3A, cells were exposed to the indicated peptides (5μg/ml) and then either transferred to 32°C or placed back at 37°C. Cells were harvested 18 hours later, and mRNA was extracted and subjected to qRT-PCR analysis. Expression levels of 3 representative p53 target genes, p21, PUMA and Mdm2, were examined. Values were normalized to non-treated cells at 37°C, and expression at 32°C, where the ts-p53 is in a WT conformation, served as positive control. […] A similar analysis was performed on ES2 ovarian cancer cells, expressing endogenous mp53^S241F, compared to ES2 p53KO cells (Figure 3B).
Figure 3 Peptides binding to p53 and their effect on the expression of p53 target genes A. - Bar graph illustrating the effect of selected peptides on activation of mutp53 by measuring transactivation of p53 target genes as determined by qRT-PCR. H1299 cells stably transfected with mutp53 (ts) A135V were used. The indicated peptides were added directly to the medium at a concentration of 5ug/ml and cells were then either moved to 32°C or returned to 37°C. 18 hours later cells were harvested, extracted for RNA, cDNA was synthesis subjected to qrt time PCR analysis. The expression level of 3 representative p53 target genes, p21, PUMA and Mdm2, were examined. The figure illustrates the relative fold induction of transcription of the cells treated with the selected peptides as compared to non-treated cells. B. - Bar graph illustrating the effect of selected peptides on activation of mutp53 by measuring transactivation of p53 target genes as determined by qRT-PCR. ES2and ES2-p53KO cells were treated with indicated peptides 5ug/ml, for 18 hours. Cells were harvested, and cDNA was subjected to qRT-PCR analysis. Expression of 4 representative p53 target genes, p21, PUMA, Mdm2 and CD95, was examined. The figure illustrates the relative fold induction of transcription in cells treated with the selected peptides compared to non-treated cells. C. - Binding of mutp53 to promoters of representative p53 target genes in live cells, assessed by chromatin immunoprecipitation. BT-549 breast cancer cells endogenously expressing mutant p53^R249S were treated for 5 hours with a mix of 3 pCAPs - 250, 242 and 325. Cells treated with a mix of inert peptides served as a negative control. DNA cross-linked p53 was immunoprecipitated, and binding to the p53 responsive elements of the PUMA, p21, CD95 and MDM2 gene promoters was quantified by qPCR. Results were normalized to input total DNA. Cell extracts immunoprecipitated with beads without antibody (beads) served as negative controls. A genomic segment containing no p53RE served as negative control (white and gray bars). D. - ELISA analysis of the binding of WTp53 and mutp53 to lead peptides. Peptides were conjugated to the bottoms of the wells of 96 well plates, employing a commercial conjugation kit (TAKARA). Control wells were coated with the αp53 monoclonal antibodies PAb1801, PAb1620 and PAb240. Recombinant WTp53 or mutp53R175H was added to the wells and incubated with the bound peptides or antibodies. Where indicated, soluble peptides were added as competitors (+ comp), to confirm the specificity of the binding to p53. pCAP-76 served as a negative control peptide. After removal of recombinant protein, plates were washed and incubated with αp53-HRP followed by TMB and optical density determination. Results are presented as relative absorbance at 450nm. […] See Materials and Methods for details.
Figure 4 Peptides trigger apoptosis in correlation to activation of WTp53 target genes A., C. - Apoptosis of ES2 cells treated with peptides. […]

WI38 = test: Crystal violet viability assay, WI38; format: cell-based; parameters: key: score 0- no effect-white; score 6- as or more effective than positive control- black; conditions: score 0-6 compared to positive control, 48 h
Method: as §1

Substance: EVTFRHSVV [pCAP-1, randomly selected peptide used as inert comparison]
- Viability SK3 (SK3): 3
- PCR ES2 [1]: 3

Substance: HANLHHT [pCAP-87]
- PCR ES2 [1]: 2

Substance: HHPWTHHQRWS [pCAP-20]
- Viability SK3 (SK3): 3
- PCR ES2 [1]: 4

Substance: HSSHHHPVHSWN [pCAP-83]
- Viability WI38 (WI38): 3

Substance: IRGRIIR [pCAP-54]
- Viability WI38 (WI38): 4
- Viability SK3 (SK3): 4
- expression of the p53 target genes, ES2 [1]: significant increase

Substance: IRGRIIRRRRRRRRR [pCAP-54R, pCAP-54 with poly arginine tail]
- Viability WI38 (WI38): 4
- Viability SK3 (SK3): 4

Substance: IRILMFLIGCGR [pCAP-23]
- Viability SK3 (SK3): 3

Substance: IRILMFLIGCGRRRRRRRRR [pCAP-23R, pCAP-23 with poly arginine tail]
- Viability WI38 (WI38): 2
- Viability SK3 (SK3): 3

Substance: LHSKTLVL [pCAP-17]
- Viability SK3 (SK3): 3

Substance: LRCLLLLIGRVGRRRRRRRR [pCAP-24R, pCAP-24 with poly arginine tail]
- Viability SK3 (SK3): 2
- expression of the p53 target genes, ES2 [1]: significant increase
- PCR ES2 [1]: 4

Substance: SFILFIRRGRLG [pCAP-60]
- Viability SK3 (SK3): 3

Substance: SFILFIRRGRLGRRRRRRRRR [pCAP-60R, pCAP-60 with poly arginine tail]
- Viability WI38 (WI38): 2
- Viability SK3 (SK3): 5
- expression of the p53 target genes, ES2 [1]: significant increase

Substance: WNHHHSTPHPAH [pCAP-97]
- Viability WI38 (WI38): 4
- PCR ES2 [1]: 5

Substance: WNHHHSTPHPAHRRRRRR [pCAP-97R, pCAP-97 with poly arginine tail]
- Viability WI38 (WI38): 4
- Viability SK3 (SK3): 3
- expression of the p53 target genes, ES2 [1]: significant increase
- PCR ES2 [1]: 5

Substance: YPTQGHLR [pCAP-36]
- Viability WI38 (WI38): 4

Substance: YRRLLIGMMWRRRRRRRRR [pCAP-68]
- PCR ES2 [1]: 3

Substance: myr-PRVLPSPHTIHPSQYP [pCAP-229, myristoylated peptide, similarity to HIPK2]
- Viability WI38 (WI38): 3
- Viability SK3 (SK3): 3
- PCR ES2 [1]: 3

Substance: myr-RRIRDPRILLLHFD [pCAP-325]
- Viability WI38 (WI38): 6
- Viability SK3 (SK3): 3

Substance: myr-RRKHNKHRPEPDSDER [pCAP-221]
- Viability WI38 (WI38): 6
- Viability SK3 (SK3): 5
- PCR ES2 [1]: 4

Substance: myr-RRKILFIRLMHNKH [pCAP-227, myristoylated peptide, similarity to GAS2]
- Viability WI38 (WI38): 3
- Viability SK3 (SK3): 6
- PCR ES2 [1]: 5

Substance: myr-RRLIVRILKLPNPPER [pCAP-242]
- Viability WI38 (WI38): 4
- Viability SK3 (SK3): 5
- PCR ES2 [1]: 4
